Measured values published in ChEMBL document CHEMBL1201862, “PubChem BioAssay data set” (2004).
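Cells were grown in 96-well plates and exposed to each compound for 48 hours at five concentrations; endpoints were interpolated linearly between bracketing concentrations, or set to the highest concentration if not reached. The concentration for 50% growth inhibition is given as GI50.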 The source made the active and inactive calls. Rule as the data show it: active = GI50 up to about 1.1 µM and inactive = higher.

Key:
Assay in all cases: DTP human tumour cell line panel, 48 h
786-0 = tested on: 786-0
A498 = tested on: A498
A549 = tested on: A549
ACHN = tested on: ACHN
CAKI-1 = tested on: CAKI-1
CCRF-CEM = tested on: CCRF-CEM
COLO 205 = tested on: COLO 205
DLD-1 = tested on: DLD-1
DMS-114 = tested on: DMS-114
DMS-273 = tested on: DMS-273
EKVX = tested on: EKVX
HCC 2998 = tested on: HCC 2998
HCT-116 = tested on: HCT-116
HCT-15 = tested on: HCT-15
HL-60 = tested on: HL-60
HOP-62 = tested on: HOP-62
HOP-92 = tested on: HOP-92
HT-29 = tested on: HT-29
IGROV-1 = tested on: IGROV-1
K562 = tested on: K562
KM12 = tested on: KM12
LOX IMVI = tested on: LOX IMVI
LXFL 529 = tested on: LXFL 529
M14 = tested on: M14
M19-MEL = tested on: M19-MEL
MOLT-4 = tested on: MOLT-4
Malme-3M = tested on: Malme-3M
NCI-H23 = tested on: NCI-H23
NCI-H460 = tested on: NCI-H460
NCI-H522 = tested on: NCI-H522
OVCAR-3 = tested on: OVCAR-3
OVCAR-4 = tested on: OVCAR-4
OVCAR-8 = tested on: OVCAR-8
RPMI-8226 = tested on: RPMI-8226
SF-268 = tested on: SF-268
SF-295 = tested on: SF-295
SF-539 = tested on: SF-539
SK-MEL-28 = tested on: SK-MEL-28
SK-MEL-2 = tested on: SK-MEL-2
SK-MEL-5 = tested on: SK-MEL-5
SK-OV-3 = tested on: SK-OV-3
SN12C = tested on: SN12C
SNB-75 = tested on: SNB-75
SNB-78 = tested on: SNB-78
SR = tested on: SR
SW-620 = tested on: SW-620
U-251 = tested on: U-251
UACC-257 = tested on: UACC-257
UACC-62 = tested on: UACC-62
UO-31 = tested on: UO-31
BT-549 = tested on: BT-549
DU-145 = tested on: DU-145
Hs-578T = tested on: Hs-578T
MCF7 = tested on: MCF7
MDA-MB-231 = tested on: MDA-MB-231
MDA-MB-435 = tested on: MDA-MB-435
MDA-N = tested on: MDA-N
NCI-H226 = tested on: NCI-H226
NCI/ADR-RES = tested on: NCI/ADR-RES
OVCAR-5 = tested on: OVCAR-5
PC-3 = tested on: PC-3
RXF 393 = tested on: RXF 393
SNB-19 = tested on: SNB-19
T47D = tested on: T47D
TK-10 = tested on: TK-10

With CCOC(=O)/C=C1\Nc2ccccc2C(c2ccccc2)=NC1OC(C)=O (centres undefined) the GI50 (786-0) was > 100 µM (inactive), the GI50 (A498) was > 100 µM (inactive) and the GI50 (A549) was > 100 µM (inactive). The GI50 (ACHN) was > 100 µM (inactive), the GI50 (CAKI-1) was 94.6 µM (inactive) and the GI50 (CCRF-CEM) was > 100 µM (inactive). The GI50 (COLO 205) was > 100 µM (inactive), the GI50 (DLD-1) was > 100 µM (inactive) and the GI50 (DMS-114) was > 100 µM (inactive). The GI50 (DMS-273) was > 100 µM (inactive), the GI50 (EKVX) was > 100 µM (inactive) and the GI50 (HCC 2998) was > 100 µM (inactive). The GI50 (HCT-116) was > 100 µM (inactive), the GI50 (HCT-15) was > 100 µM and the GI50 (HL-60) was 81.5 µM (inactive). The GI50 (HOP-62) was > 100 µM (inactive), the GI50 (HOP-92) was 32.1 µM (inactive) and the GI50 (HT-29) was 57.5 µM (inactive). The GI50 (IGROV-1) was > 100 µM (inactive), the GI50 (K562) was 97.1 µM (inactive) and the GI50 (KM12) was > 100 µM (inactive). For the same compound, the GI50 (LOX IMVI) was > 100 µM (inactive), the GI50 (LXFL 529) was > 100 µM (inactive) and the GI50 (M14) was > 100 µM (inactive). For the same compound, the GI50 (M19-MEL) was > 100 µM (inactive), the GI50 (MOLT-4) was > 100 µM (inactive) and the GI50 (Malme-3M) was > 100 µM (inactive). For the same compound, the GI50 (NCI-H23) was > 100 µM (inactive), the GI50 (NCI-H460) was > 100 µM (inactive) and the GI50 (NCI-H522) was > 100 µM (inactive). The GI50 (OVCAR-3) was > 100 µM (inactive), the GI50 (OVCAR-4) was > 100 µM (inactive) and the GI50 (OVCAR-8) was > 100 µM (inactive). For the same compound, the GI50 (RPMI-8226) was 76.6 µM (inactive), the GI50 (SF-268) was > 100 µM (inactive) and the GI50 (SF-295) was > 100 µM (inactive). The GI50 (SF-539) was > 100 µM (inactive), the GI50 (SK-MEL-28) was > 100 µM (inactive) and the GI50 (SK-MEL-2) was > 100 µM (inactive). For the same compound, the GI50 (SK-MEL-5) was > 100 µM (inactive), the GI50 (SK-OV-3) was > 100 µM (inactive) and the GI50 (SN12C) was > 100 µM (inactive). For the same compound, the GI50 (SNB-75) was 31.9 µM (inactive), the GI50 (SNB-78) was > 100 µM (inactive) and the GI50 (SR) was 99.1 µM (inactive). The GI50 (SW-620) was > 100 µM (inactive), the GI50 (U-251) was > 100 µM (inactive) and the GI50 (UACC-257) was > 100 µM (inactive). For the same compound, the GI50 (UACC-62) was 79.6 µM (inactive) and the GI50 (UO-31) was 44 µM (inactive).

In the case of COCn1c(=O)n(C)c(=O)c2c1nc1c(c(=O)n(C)c(=O)n1COC)[n+]2[O-], the GI50 (786-0) is reported as 18.4 µM (inactive), the GI50 (A498) is reported as 31.2 µM (inactive) and the GI50 (A549) is reported as 23.4 µM (inactive). The GI50 (ACHN) was 5.73 µM (inactive), the GI50 (BT-549) was 10.3 µM (inactive) and the GI50 (CAKI-1) was 20.3 µM (inactive). The GI50 (CCRF-CEM) was 5.37 µM (inactive), the GI50 (COLO 205) was 12.5 µM (inactive) and the GI50 (DU-145) was 17.1 µM (inactive). The GI50 (EKVX) was 7.85 µM (inactive), the GI50 (HCC 2998) was 5.33 µM (inactive) and the GI50 (HCT-116) was 10.6 µM (inactive). The GI50 (HCT-15) was 4.22 µM, the GI50 (HL-60) was 12.7 µM (inactive) and the GI50 (HOP-62) was 9.23 µM (inactive). The GI50 (HOP-92) was 3.61 µM (inactive), the GI50 (HT-29) was 18.8 µM (inactive) and the GI50 (Hs-578T) was 8.55 µM (inactive). For the same compound, the GI50 (IGROV-1) was 7.36 µM (inactive), the GI50 (K562) was 4.75 µM (inactive) and the GI50 (KM12) was 13.3 µM (inactive). The GI50 (LOX IMVI) was 6.68 µM (inactive), the GI50 (M14) was 10.3 µM (inactive) and the GI50 (MCF7) was 20.4 µM (inactive). The GI50 (MDA-MB-231) was 15.3 µM (inactive), the GI50 (MDA-MB-435) was 5.75 µM (inactive) and the GI50 (MDA-N) was 4.32 µM (inactive). For the same compound, the GI50 (MOLT-4) was 4.19 µM (inactive), the GI50 (Malme-3M) was 5.47 µM (inactive) and the GI50 (NCI-H226) was 10.1 µM (inactive). The GI50 (NCI-H23) was 3.29 µM (inactive), the GI50 (NCI-H460) was 3.15 µM (inactive) and the GI50 (NCI-H522) was 8.97 µM (inactive). For the same compound, the GI50 (NCI/ADR-RES) was 59 µM (inactive), the GI50 (OVCAR-3) was 10.6 µM (inactive) and the GI50 (OVCAR-4) was 4.85 µM (inactive). The GI50 (OVCAR-5) was 25.1 µM (inactive), the GI50 (OVCAR-8) was 5.7 µM (inactive) and the GI50 (PC-3) was 5.07 µM (inactive). For the same compound, the GI50 (RPMI-8226) was 9.1 µM (inactive), the GI50 (RXF 393) was 0.789 µM (active) and the GI50 (SF-268) was 6.65 µM (inactive). The GI50 (SF-295) was 7.55 µM (inactive), the GI50 (SF-539) was 14.6 µM (inactive) and the GI50 (SK-MEL-28) was 35.9 µM (inactive). For the same compound, the GI50 (SK-MEL-2) was 12.6 µM (inactive), the GI50 (SK-MEL-5) was 5.83 µM (inactive) and the GI50 (SK-OV-3) was 7.03 µM (inactive). For the same compound, the GI50 (SN12C) was 7.08 µM (inactive), the GI50 (SNB-19) was 13.7 µM (inactive) and the GI50 (SNB-75) was 2.75 µM (inactive). For the same compound, the GI50 (SR) was 3.77 µM (inactive), the GI50 (SW-620) was 11.1 µM (inactive) and the GI50 (T47D) was 3.13 µM (inactive). The GI50 (TK-10) was 8.69 µM (inactive), the GI50 (U-251) was 5.85 µM (inactive) and the GI50 (UACC-257) was 18.2 µM (inactive). The GI50 (UACC-62) was 7.01 µM (inactive) and the GI50 (UO-31) was 24.9 µM (inactive).
